Data taken from patent publication US8258145B2, “Method of treating brain cancer” (Myrexis, Inc., priority 2005, dated 2012).
Where a name gives a salt, the structure may show the parent alone.

How the values were obtained:
T-47D = assay: Caspase cascade activation (caspase activity ratio and potency), fluorogenic N-(Ac-DEVD)-N'-ethoxycarbonyl-R110 substrate; assay type: cell-based, Human
Description: Human breast cancer cell lines T-47D and DLD-1 were grown according to media component mixtures designated by American Type Culture Collection+10% FCS (Invitrogen Corporation), in a 5% CO2−95% humidity incubator at 37° C. T-47D and DLD-1 cells were maintained at a cell density between 50 and 80% confluency at a cell density of 0.1 to 0.6×10^6 cells/mL. Cells were harvested at 600×g and resuspended at 0.65×10^6 cells/mL into appropriate media+10% FCS. An aliquot of 22.5 μL of cells was added to a well of a 384-well microtiter plate containing 2.5 μL of a 10% DMSO in RPMI-1640 media solution containing 0.16 to 100 μM of (2-chloro-quinazolin-4-yl)-(4-methoxy-phenyl)-methyl-amine or other test compound (0.016 to 10 μM final). An aliquot of 22.5 μL of cells was added to a well of a 384-well microtiter plate containing 2.5 μL of a 10% DMSO in RPMI-1640 media solution without test compound as the control sample. […] […] The samples were mixed by agitation and incubated at room temperature. Using a fluorescent plate reader (Model SPECTRAfluor Plus, Tecan), an initial reading (T=0) was made approximately 1-2 min after addition of the substrate solution, employing excitation at 485 nm and emission at 530 nm, to determine the background fluorescence of the control sample. After the 3 h incubation, the samples were read for fluorescence as above (T=3 h).
The Relative Fluorescence Unit values (RFU) were used to calculate the sample readings as follows: RFU(T=3h)−Control RFU(T=0)=Net RFU(T=3h)
The activity of caspase cascade activation was determined by the ratio of the net RFU value for (2-chloro-quinazolin-4-yl)-(4-methoxy-phenyl)-methyl-amine or other test compounds to that of control samples. The EC50 (nM) was determined by a sigmoidal dose-response calculation (Prism 3.0, GraphPad Software Inc.).

[1] = Determination of brain/plasma AUC ratio after tail vein injection; assay type: in vivo; conditions: mouse, intravenous, 0.0875 mg/mouse, mice, 0.10 mL of 0.875 mg/mL, AUC0-∞ from median plasma and brain concentrations
Description: For each test compound, forty five mice were injected via the tail vein with 0.10 mL of a 0.875 mg/mL solution of test compound dissolved in a formulation of 5% Cremophor, 5% Ethanol, and 90% D5W, or a formulation variation thereof. Five mice at each collection time point of approximately 0.05, 0.25, 0.50, 1.00, 2.00, 4.00, 8.00, 12.0 and 24.0 hours post dose were euthanized by halothane inhalation. Approximately 0.30 to 1.00 mL of blood from each animal was collected via cardiac puncture into tubes containing EDTA. Immediately after exsanguination, the whole brain from each animal was removed. The plasma and whole brain samples were frozen (˜20° C.) separately until analysis. Plasma and brain samples were allowed to thaw at room temperature on the day of sample analysis. Prior to homogenization, the brains were weighed and three volumes of sterile water were added. Plasma and homogenized brain samples were extracted using a protein precipitation and filtration method. Briefly, 0.20 mL acetonitrile was added to 0.10 mL of sample in a Varian Captiva 20 μm filtration plate. A vacuum was applied to the plate and filtrates were collected. Filtrates were injected onto LC-MS/MS ABI2000 QTrap LC-MS/MS equipped with a reverse phase liquid chromatography inlet. Peak areas of the m/z product ions of the test compounds were measured against the peak are of the m/z internal standard production. The range of quantitation for the assay was between 1.00 and 1000 ng/mL for both analytes.
Pharmacokinetic parameters (PK) for the test compounds were estimated on median plasma and brain concentrations using non-compartmental analysis in WinNonlin (Pharsight Corp., Mountain View, Calif.). The validation of this software program is reported in MPI-REP-PA-03.00. All values below the quantitation limit (BQL) of 1.00 ng/mL were excluded from PK analysis. The areas under the concentration-time curve (AUC0-∞) were calculated using a linear/log trapezoidal method.

Structure (SMILES) | Caspase activity Ratio (net RFU of test compound to control) (T-47D; T-47D (24 hr)) | Kp [1] | Caspase activity Ratio (net RFU of test compound to control) (T-47D; T-47D (48 hr))
COc1ccc(N(C)c2nc(Cl)nc3ccccc23)cc1 [Example 1, (2-Chloro-quinazolin-4-yl)-(4-methoxy-phenyl)-methyl-amine] | 8.7 | 30 | 
COc1ccc(N(C)c2nc(OC)nc3ccccc23)cc1 [Example 11, (2-methoxy-quinazolin-4-yl)-(4-methoxyphenyl)-methylamine] |  | 6.14 | 
COc1ccc(N(C)c2ccnc3ccccc23)cc1 [Example 17, (4-Methoxy-phenyl)-methyl-(quinolin-4-yl)-amine] | 7.2 | 9.16 | 12.5
COc1ccc(N(C)c2nc(C)nc3ccccc23)cc1 [Example 21, (4-Methoxy-phenyl)-methyl-(2-methyl-quinazolin-4-yl)-amine hydrochloride] | 9.0 | 19.7 | 7.4
COc1ccc(N(C)c2nc(C)nc3ccccc23)cn1 [Example 33, (2-Methyl-quinazolin-4-yl)-(6-methoxy-pyridin-3-yl)-methyl-amine] |  | 5.82 | 
Cc1nc(N(C)c2ccc(N(C)C)cc2)c2ccccc2n1 [Example 35, (4-Dimethylamino-phenyl)-(2-methyl-quinazolin-4-yl)-methyl-amine] | 8.5 | 16.1 | 
CNc1nc(N(C)c2ccc(OC)cc2)c2ccccc2n1 [Example 39, (2-Methylamino-quinazolin-4-yl)-(4-methoxy-phenyl)-methyl-amine] | 8.2 | 6.44 | 
CNc1nc(N(C)c2ccc(OC)nc2)c2ccccc2n1 [Example 40, (2-Methylamino-quinazolin-4-yl)-(6-methoxy-pyridin-3-yl)-methyl-amine] | 10 | 10 | 
CNc1ccc(N(C)c2nc(C)nc3ccccc23)cc1 [Example 43, (2-Methyl-quinazolin-4-yl)-(4-methylamino-phenyl)-methylamine] | 3.4 | 14.1 | 
CC(=O)N(C)c1nc(N(C)c2ccc(N(C)C)cc2)c2ccccc2n1 [Example 48, [2-(N-Methyl-acetamido)-quinazolin-4-yl]-(4-dimethylaminophenyl)-methylamine] | 2.4 |  | 
CSc1ccc(N(C)c2nc(C)nc3ccccc23)cc1 [Example 49, (4-Methylthio-phenyl)-(2-methyl-quinazolin-4-yl)-methylamine] | 7.5 |  | 
Cc1nc(N(C)c2ccc(N(C)C)nc2)c2ccccc2n1 [Example 50, (2-Dimethylamino-pyridine-5-yl)-(2-methyl-quinazolin-4-yl)-methylamine] | 9.0 |  | 
COc1ccc(N(C)c2nc(N(C)C(C)=O)nc3ccccc23)cc1 [Example 51, (4-Methoxy-phenyl)-(2-N-methylacetamido-quinazolin-4-yl)-methylamine] | 4.0 | 23.3 | 
COc1ccc(N(C)c2nc(C)nc3ccc(N(C)C)cc23)cc1 [Example 52, (6-Dimethylamino-2-methyl-quinazolin-4-yl)-(4-methoxy-phenyl)-methylamine] | 6.4 |  | 
CN(c1ccc([N+](=O)[O-])cc1)c1nc(Cl)nc2ccccc12 [Example 54, (2-Chloro-quinazolin-4-yl)-(4-nitro-phenyl)-methyl-amine] | 7.1 |  | 
CN(c1ccccc1)c1nc(Cl)nc2ccccc12 [Example 55, (2-Chloro-quinazolin-4-yl)-phenyl-methyl-amine] | 6.7 |  | 
COc1ccc(OC)c(N(C)c2nc(Cl)nc3ccccc23)c1 [Example 56, (2-Chloro-quinazolin-4-yl)-(2,5-dimethoxy-phenyl)-methyl-amine] | 8.6 |  | 14.6
COc1ccccc1N(C)c1nc(Cl)nc2ccccc12 [Example 57, (2-Chloro-quinazolin-4-yl)-(2-methoxy-phenyl)-methyl-amine] |  |  | 14.3
CN(c1ccc(O)cc1)c1nc(Cl)nc2ccccc12 [Example 58, (2-Chloro-quinazolin-4-yl)-(4-hydroxyphenyl)-methylamine] |  |  | 12.5
COc1ccc(N(C)c2nc(Cl)nc3cc(Cl)ccc23)cc1 [Example 59, (2,7-Dichloro-quinazolin-4-yl)-(4-methoxy-phenyl)-methyl-amine] |  |  | 12.7
COc1ccc(N(C)c2nc(Cl)nc3cc(C)ccc23)cc1 [Example 60, (2-Chloro-7-methyl-quinazolin-4-yl)-(4-methoxy-phenyl)-methyl-amine] |  |  | 6.2
